Source: paper PMC12501029, “Discovery of a CNS active GSK3 degrader using orthogonally reactive linker screening” (Nature Communications, 2025)
Converted amounts (≈) assume the structure as drawn. Where two headings read alike, the source gives them in different places.

Assays:
[1] = molecular target: T1, GSK3β-HiBiT (GSK3β-HiBiT KI HEK293 cells) (Homo sapiens, UniProt P49841); experiment: HiBiT lytic degradation assay / high-throughput screen, 24 h; type: cell-based; conditions: 24 h treatment; for DC50: pure (resynthesised, HPLC purified) compound
T1 construct: we generated endogenously tagged GSK3β-HiBiT knock-in (KI) HEK293 cells; endogenous in cells; host or cells: GSK3β-HiBiT knock-in HEK293 cells (CRISPR/Cas9, single-cell clone)
T1 sequence (P49841 whole entry): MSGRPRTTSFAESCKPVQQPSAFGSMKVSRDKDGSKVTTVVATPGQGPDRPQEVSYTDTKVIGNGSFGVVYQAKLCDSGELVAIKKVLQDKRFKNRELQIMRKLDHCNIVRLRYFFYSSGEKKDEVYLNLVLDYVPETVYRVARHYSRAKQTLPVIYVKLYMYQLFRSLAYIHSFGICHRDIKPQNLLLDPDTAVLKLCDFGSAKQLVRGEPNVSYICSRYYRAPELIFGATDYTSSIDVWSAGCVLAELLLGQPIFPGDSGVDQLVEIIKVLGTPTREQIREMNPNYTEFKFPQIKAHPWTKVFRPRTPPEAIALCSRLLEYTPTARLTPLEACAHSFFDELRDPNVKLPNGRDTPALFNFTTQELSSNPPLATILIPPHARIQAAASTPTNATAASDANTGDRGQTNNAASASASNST
Protocol: Crude compounds were assumed to be 10 mM concentration in DMSO and after generating libraries directly used in biological tests in degradation screens. Stock solutions were serially diluted into white bottom opaque 384-well plates (Perkin Elmer) using Echo500 (Labcyte) and DMSO was backfilled to maintain same DMSO content in each well for all concentrations. […] HiBiT lytic assay buffer (Promega) prepared according to the manufacturer’s instructions and added onto each well using Multidrop^TM Combi reagent dispenser. Luminescence signal was measured on PheraStar plate reader (BMG) and obtained data normalised to DMSO conditions using Excel and further analysed using GraphPad Prism (v10.1.2) and degradation curves were generated using 4-parameter non-linear regression fit to calculate DC50 and Dmax values. Data points associated with concentrations displaying a hook effect were excluded prior to DC50 and Dmax calculation.

[2] = Intrinsic clearance (Cli), human liver microsomes; type: in vitro ADME; conditions: 0.5 µM, scaling factor 40 mg microsomal protein per g liver
Protocol: (§1) Test compound (0.5 µM) was incubated with female CD1 mouse, male rat Han Wistar and pooled human liver microsomes (Xenotech^TM; 0.5 mg/mL 50 mM potassium phosphate buffer, pH7.4) and the reaction started with addition of excess NADPH (8 mg/mL 50 mM potassium phosphate buffer, pH7.4). Immediately, at time zero, then at 3, 6, 9, 15 and 30 min an aliquot (50 µL) of the incubation mixture was removed and mixed with acetonitrile (100 uL) to stop the reaction. An internal standard was added to all samples, the samples centrifuged to sediment precipitated protein and the plates then sealed prior to UPLC-MSMS analysis (Xevo TQ-S Micro, Waters^TM). XLfit (IDBS, UK) was used to calculate the exponential decay and consequently the rate constant (k) from the ratio of peak area of test compound to internal standard at each timepoint. The rate of intrinsic clearance (CLi) of each test compound was then calculated using the following calculation:1 CLi(mL/min/gliver)=kxVxMicrosomalproteinyield Where V (mL/mg protein) is the incubation volume/mg protein added and microsomal protein yield is taken as 48 mg, 46 mg and 40 mg protein/g liver for mouse, rat and human, respectively. Verapamil (0.5 µM) was used as a positive control to confirm acceptable assay performance.

[3] = Brain binding, equilibrium dialysis; type: in vitro ADME; conditions: brain tissue homogenate
Protocol: As for plasma protein binding experiments, 96-well equilibrium dialysis apparatus was used to determine the free fraction in brain tissue homogenate for each compound (HT Dialysis LLC, Gales Ferry, CT). Membranes (12–14 kDA cut-off) were conditioned in deionised water for 60 min, followed by conditioning in 80:20 deionised water: ethanol for 20 min, and then rinsed in isotonic buffer before use. Frozen brain tissue was thawed and homogenised in artificial CSF at a ratio of 3:1. Homogenate was then spiked with test compound (final concentration 10 μg/mL), and 150 μL aliquots (n = 6 replicate determinations) loaded into the 96-well equilibrium dialysis plate. Dialysis vs artificial CSF was carried out for 5 h in a temperature-controlled incubator at ca. 37 °C (Barworld Scientific Ltd, UK) using an orbital microplate shaker at 100 revolutions/minute (Barworld Scientific Ltd, UK). 150 μL aliquots of spiked homogenate were stored at 37 °C and 4 °C for the course of the experiment to determine recovery. At the end of the incubation period, 50 μL aliquots of homogenate or buffer were transferred to a 96 deepwell plate (Waters^TM) and the composition in each was balanced with control fluid (50 μL), such that the volume of buffer to brain homogenate is the same. Sample extraction was performed by the addition of 200 μL of acetonitrile containing an appropriate internal standard. Samples were allowed to mix for 1 min and then centrifuged at 3000 rpm in 96-well blocks for 15 min (Allegra X12-R, Beckman Coulter, USA), after which 150 μL of supernatant was removed to 50 μL of water. All samples were analysed by UPLC-MS/MS. The unbound fraction was determined as the ratio of the peak area in buffer to that in homogenate using the following equation:2 Afu=Buffer/Matrix where Afu means apparent fraction unbound
Buffer = Analyte/IS ratio in buffer side […]
The recovery of the dialysed samples was calculated by comparing the sum of the peak areas (buffer and matrix) of any test compound at 37 °C to that of the same compound at 4 °C. […]

[4] = Intrinsic clearance (Cli), rat liver microsomes; type: in vitro ADME; conditions: 0.5 µM, scaling factor 46 mg microsomal protein per g liver
Protocol: as §1

[5] = RealSOL kinetic solubility; type: physicochemical; conditions: PBS pH 7.4, 24 h, 25 °C; for solubility kinetic at 24 h: phosphate buffered saline, aqueous buffer, kinetic from dmso stock
Protocol: Solubility was assessed using an 'in-house' developed method known as 'RealSOL'. This solubility method measures the solubility in physiological strength phosphate buffered saline starting from 10 mM DMSO solutions of the test compounds. Although a 'kinetic'^[1] solubility method, the long shaking times appears to give solubility values that reflect more closely those made from solid samples when compared to a previous nephelometric method (unpublished in-house data).
Test compounds were dissolved in DMSO to give 10 mM solutions. Solubility test samples were prepared by adding a volume (5 µL) of the 10 mM solution to a volume (195 µL) of phosphate buffered saline, pH 7.4 (Sigma-Aldrich, Cat no. P4417, made as per manufacturer’s instructions). This solution was then mixed for 24 h (rotary mixing, 900 rpm, 25 °C) excluding light.
After mixing, the solubility test samples were filtered to remove any undissolved material using a proprietary filter (Millipore Multiscreen HTS filter, 96-well format). Samples were drawn through the filter using a vacuum.
The filtrate from the above was analysed for dissolved drug compound using a truncated UHPLC methodology. A Shimadzu Nexera X2 UHPLC system was used, with a reversed-phase column and a simple formic acid gradient elution. The UHPLC parameters are shown in Supporting Information Table 5.
A calibration solution was prepared in the following way: the same 10 mM solution used to prepare the solubility test sample was diluted in DMSO to give a 500 µM solution. This solution was then again diluted with 50:50 acetonitrile: water to give a 50 µM solution. Aliquots (0.2, 2.0 and 5.0 µL) of this 50 µM solution were then injected onto the UHPLC system and the areas of the resultant peaks integrated to produce a calibration line. Aliquots of the test sample filtrate (0.4 and 5.0 µL) were then injected onto the UHPLC system and the resultant peak areas for any peaks corresponding to the test compound determined and quantified using the calibration line (the injection volume that gave a peak area closest to the calibrated range was used for determining solubility).

[6] = HEK293, crude mixture, stock assumed 10 mM
[7] = HEK293, pure (resynthesised, HPLC purified) compound
[8] = 10 μg/mL, 5 h dialysis, read-out: Brain Tissue Binding (Fu)

Row | SMILES | Dmax [1, 6] [%] | Dmax [1, 7] [%] | Scaled Microsomal Stability HuClint [2] [ml/min/g liver] | fraction unbound at 5 h, 10 μg/mL [3, 8] | Scaled Microsomal Stability RatClint [4] [ml/min/g liver] | solubility kinetic at 24 h [5] [µM] | DC50 ([1]; listed as KH1 (24)) | fraction unbound at 5 h, 10 μg/mL ([3]; brain binding, read-out: measured free fraction in brain) | RealSol [5] | DC50 ([1]; listed as KH2 (26))
1 | O=C1CCC(NC(=O)c2ccc(CN3CCN(Cc4ccc(-c5cn(-c6ccc(-c7cn8nccc(C(=O)Nc9cnccc9N9CCOCC9)c8n7)cc6)nn5)nc4)CC3)cn2)C(=O)N1 (stereo not shown) [compound 22] | 89 | 87 | 3.6 | 0.0029 | 0.71 | < 1 |  |  |  | 
2 | Cn1nc(N2CCC(=O)NC2=O)c2ccc(CN3CCN(Cc4ccc(-c5cn(-c6ccc(-c7cn8nccc(C(=O)Nc9cnccc9N9CCOCC9)c8n7)cc6)nn5)nc4)CC3)cc21 [compound 24] | 91 | 93 | 0.88 |  | 0.51 | 2.7 (≈ 2.43 µg/mL) | picomolar to single-digit nanomolar range | 0.0012 | low micromolar range | 
3 | Cn1nc(N2CCC(=O)NC2=O)c2ccc(CN3CCN(CCCc4cn(-c5ccc(-c6cn7nccc(C(=O)Nc8cnccc8N8CCOCC8)c7n6)cc5)nn4)CC3)cc21 [compound 26] | 78 | 80 | 1.6 | 0.012 | 1.3 | 2.3 (≈ 1.95 µg/mL) |  |  | low micromolar range | picomolar to single-digit nanomolar range
